Laboratory results taken from patent publication US20240306641A1, “P-BOOSTER” (EUROCHEM ANTWERPEN, priority 2021, published 2024).

Columns and labels:
[1] = system: SPX1 phosphate starvation biomarker (pSPX1::GUS); experiment: Chemical activity assessment: SPX1 suppression in Arabidopsis pSPX1::GUS reporter line (GUS stained area); type: in vivo, Arabidopsis thaliana; conditions: 50 μM compound, low phosphate modMS liquid medium, 96-well, 7 days after germination; low phosphate control of same plate
Method: (§1) All Arabidopsis plant experiments were performed using the Arabidopsis thaliana Columbia-0 background. The Arabidopsis pSPX1::GUS line is described in the […] 2008, 54: 965-975. For rice, the cultivar Nipponbare was used. For maize, the cultivars DKC 2931 and 8104 were used for regular pot experiments and sand-based pot experiments, respectively. For soybean, the cultivar Primus was used. […] The medium was solidified due to the addition of 0.6% Gelrite, unless stated otherwise. In case of vertical plates (root length and root hair measurements), the medium was supplied with 0.5% of sucrose and 1 μM (low phosphate, 1 μM KH2PO4, 9.9 mM KCl), 10 μM (low phosphate 10 μM KH2PO4, 9.9 mM KCl) or 1.25 mM KH2PO4 (high phosphate). Arabidopsis seeds were stratified for 2 days at 4° C. before germination. Seedlings were germinated in climate-controlled growth chambers at 22° C. under continuous light ([…] m^−2 s^−1). Husked rice seeds were germinated on wetted Whatman paper for 2 days at 37° C. and then transferred to Sterivent boxes or square Petri dishes with solid medium. Maize and soybean seeds were wetted 24 hours at room temperature prior to sowing in pots.
For the chemical activity assessment 3 to 8 seeds per well of Arabidopsis pSPX1::GUS line were sown in 96-well plates containing 150 μl of low phosphate modMS liquid medium containing 1% of sucrose. Compounds were added in 50 μM concentration, starting from a 5 mM stock of compounds solved in DMSO. Different chemical substances were separately added to different wells. Per plate, 16 control wells were used, 8 containing only the low phosphate medium and 1% DMSO, and 8 containing high phosphate medium and 1% DMSO. 7 days after germination, plates were scanned using a flatbed scanner (EPSON Expression 11000XL) and analyzed for leaf size. After scanning, the growth medium was replaced by GUS staining solution (see Plant Mol. Biol. Rep. 1994, 12: 37-42 for details) and incubated for 1.5 hours at 37° C. The plates were scanned a second time and analyzed for GUS signal area. Measurements of both leaf area and GUS signal area were conducted by filtering out and measure the green and blue signal, respectively using ImageJ software. If the green leaf area was 50% or less than the control, samples were omitted. Additionally, all results were visually screened for leaf size and GUS signal.
To identify new substances that suppress the expression of the SPX1 phosphate starvation biomarker, we used an Arabidopsis SPX1 reporter line pSPX1::GUS. […] This observation was confirmed in two experimental repeats.

[2] = system: Arabidopsis thaliana Columbia-0; experiment: Root hair number and length quantification, Arabidopsis vertical plate; type: in vivo; conditions: for activity at 1 µM: 1 μM compound
Method: as §1
Roots were imaged using a stereomicroscope or a VHX-6000. Number and length of the root hairs parallel to the medium surface was determined at 4 to 6 mm above the root meristem. Root hair length was measured using the ImageJ software.

maize cultivar DKC 2931 = experiment: Regular maize pot experiment (potting soil); type: in vivo; conditions: low phosphate, 10 μM compound
Method: as §1
(§2) Regular Arabidopsis, soybean and maize pot experiments used an unfertilized potting soil, which was supplemented at the start of the experiment with 50 ml H2O containing 0.25 g/l NH4NO3 and 0.44 g/l (high phosphate) or no (maize and soybean) or 0.11 g/l KH2PO (Arabidopsis) for low phosphate conditions. For the sand-based maize pot experiment, sand was supplemented with 50 ml H2O containing 0.25 g/l NH4NO3 and 0.38 g/l (high phosphate) or 0.02 g/l (low phosphate) KH2PO4. Potassium was balanced via addition of KCl. Compound concentration was 10 μM, calculated based on the total water content after watering, and was added at the start of the experiment (Arabidopsis) or once a week (maize). Indexed chlorophyll contents were received via a SPAD 502 Plus Chlorophyll Meter. All parameters in the sand experiment, except the rate of leaf 4 (measured the first 4 days after emergence), were measured 19 days after sowing. Measurements in the pot experiments with potting soil were done after 4 weeks of growth, except for leaf 5, which was measured at 26 days. The long term maize pot experiment was performed on the automated Phenovision platform (see Mertens et al, 2021, https://doi.org/10.3389/fpls.2021.640914) with maize cultivars B104 and DKC2931. End point measurements occurred after 90 days (B104) or 70 days (DKC2931). Plants were grown on an unfertilized potting soil, which was fertilized bi-weekly with 50 mL modified Hoagland solution (2.5× concentrated; but with 0.25 mM KH2PO4).

maize cultivar B104 = experiment: Long term maize pot experiment, Phenovision platform, B104; type: in vivo; conditions: B104, end point after 90 days
Method: as §2

maize cultivar DKC2931 = experiment: Long term maize pot experiment, Phenovision platform, DKC2931; type: in vivo; conditions: DKC2931, end point after 70 days
Method: as §2

[3] = system: Arabidopsis thaliana Columbia-0; experiment: Arabidopsis horizontal plate leaf area assay; type: in vivo; conditions: Arabidopsis horizontal plates (Table 4); control without compound 63
Method: as §1
Arabidopsis primary root growth experiments were done on MS1/2 on vertical standing plates and roots were measured 11 days after germination. Roots were imaged using a flatbed scanner (EPSON Expression 11000XL) and root length was measured using ImageJ software. Arabidopsis shoot biomass was determined in 11 days after germination and growth on vertical standing plates with modMS. Arabidopsis leaf area was measured 21 days after germination on horizontal plates with modMS medium. Plates were scanned from the top using a flatbed scanner (EPSON Expression 11000XL) and the visible leaf area was measured using ImageJ software. Rice plate experiments used vertically standing Petri dishes containing MS1/2 medium (low phosphate—0.001 mM) solidified with 0.8% washed agar. Plant height was measured 11 days after germination. Rice box experiments used modMS medium and a low phosphate condition of 0.025 mM phosphate. Plant height was measured 13 days after germination. All growth experiments occurred with 10 μM of compound and in low phosphate conditions, unless stated otherwise. Controls always received the same DMSO concentration.

[4] = Arabidopsis thaliana, read-out: Total root hair length per root (in % compared to the control)
[5] = Arabidopsis vertical plate, high phosphate

## CCN(CCCN)c1ccccc1 [Example 2]
[1]
  GUS (SPX1) stained area normalized to the number of seeds: 21 pixels
[2]; [4]
  activity at 1 µM: 886%
[2]; [5]
  Average root hair length per root in high phosphate conditions: 0.28 mm
  Root hair number in high phosphate conditions (one plane in 2 mm region): 8
  Total root hair length per root in high phosphate conditions: 0.27 cm
Maize cultivar DKC 2931; 4 weeks
  Plant height: 62 cm
  Shoot weight: 4.5 g
Maize cultivar DKC 2931; 26 days
  Leaf 5: 46 cm
Maize cultivar B104
  Biomass: 37 g
  Plant height: 719 mm
  Plants with developed ears: 62%
  Sum of leaf length: 6050 mm
Maize cultivar DKC2931
  Biomass: 31 g
  Plant height: 1010 mm
  Plants with developed ears: 100%
  Sum of leaf length: 3950 mm

## NCCCNc1ccccc1 [Example 3]
[3]
  Average leaf area: 69 mm^2

## CN(CCCN)c1ccccc1 [Example 4]
[3]
  Average leaf area: 72 mm^2

## CCN(CCCNC)c1ccccc1 [Example 5]
[3]
  Average leaf area: 65 mm^2

## CCN(CCCNC(=O)CNC(=O)c1cc(C)cc(C)c1)c1ccccc1 [Example 6]
[1]
  GUS (SPX1) stained area normalized to the number of seeds: 8 pixels

## CCN(C)c1ccccc1 [Example 9]
[2]; [4]
  activity at 1 µM: 390%
[2]; Arabidopsis thaliana, 3 μM compound, read-out: Total root hair length per root (in % compared to the control)
  activity at 3 µM: 313%
[2]; Arabidopsis thaliana, 10 μM compound, read-out: Total root hair length per root (in % compared to the control)
  activity at 10 µM: 758%

## CN(CCCNC(=O)CSc1nnnn1-c1ccccc1)c1ccccc1 [Example 10]
[1]
  GUS (SPX1) stained area normalized to the number of seeds: 298 pixels

## Cc1ccccc1-c1nnc(SCC(=O)NCCCN(C)c2ccccc2)n1C [Example 11]
[1]
  GUS (SPX1) stained area normalized to the number of seeds: 800 pixels
